In patent US8636979B2, “TLR 4 and 9 receptors agonists for preventing septic complications of post-traumatic immunodepression in patients hospitalized for severe traumatic injuries” (Chu Nantes, priority 2009, dated 2014):

Test system: methicillin-sensitive Staphyloccocus aureus (MSSA) pneumonia after haemorrhagic shock
Test: Mortality from MSSA pneumonia after haemorrhagic shock (post-haemorrhagic SI model)
Format: in vivo
Details: Balb/cJ mice; i.v. injection immediately after resuscitation from haemorrhagic shock; 7×10^6 CFU MSSA 24 h later; survival followed 7 days
Method: An intra-venous injection of CpG-ODN 1668 (100 μl to […]) (HP-CpG group) or the same volume of isotonic saline solution (HP group) was given immediately after resuscitation from haemorrhagic shock. Twenty-four hours later the mice were inoculated with 7×10^6 CFU of MSSA. The survival rate of each group was measured twice a day for 7 days (168 hours). Each group comprised 8 animals. Data are given as a percentage and are representative of three independent experiments each having the same statistical significance (*p≦0.05). HP Group (black diamonds), HP-CpG group (blank squares).
Male Balb/cJ mice (20-24 grams) were obtained from the Janvier breeding company (Laval, France). Mice were kept on a day/night cycle of 12 hours with free access to food and drink. […]
A strain of methicillin-sensitive Staphyloccocus aureus or <<MSSA>> (ATCC strain 29213) was cultured 16 hours at 37° C. in a tryptic soy medium (Grosseron, Saint Herblain, France). […] The bacterial concentration was systematically controlled by quantitative culture. […]
Mortality was assessed twice a day for 7 days. […] Capillary glycaemia was measured using a haemaglucotest (Boehringer Ingelheim France), Venous blood gasometry, reflecting shock intensity and quality of resuscitation, was measured on central venous blood taken from the right atrium.

Substance: monophosphoryl lipid A [MPLA]
- mortality in post-haemorrhagic SI model with MSSA pneumonia: significantly lowered mortality
